From patent US20230277125A1, “BREATH-BASED THERAPEUTIC DRUG MONITORING METHOD” (UNIVERSITÄTS-KINDERSPITAL BEIDER BASEL, priority 2020, published 2023)

Legend:
[1] = human, in vivo
From the text: It will be further noted that according to the methods of the present invention it is possible to measure the level of metabolites that belong to different metabolic pathways. Therefore, by measuring the level of said metabolites and comparing them with each other, it is also possible to compare the activities of said different metabolic pathways. […] FIG. 3 presents the time dependence of the relative activity of two oxidation pathways of valproate, β-oxidation that leads to 3-heptanone, and ω1-oxidation that results in 2-propyl-4-pentanolactone. The activities of both oxidation pathways are presented herein as a ratio between the nAUC parameters for m/z peaks due to compounds belonging to each of the pathways, and presented in a logarithmic scale. Both increase of in 2-propyl-4-pentanolactone to 3-heptanone ratio, as well as decrease thereof can be observed over time, and observed ratios span more than 100-fold range. Herein, values of nAUC parameters for the m/z peaks due to both 3-heptanone and 2-propyl-4-pentanolactone (accordingly, peaks at m/z of 115.11176 and 143.10659 in FIG. 14) are predictors for the previously trained mathematical model of the present invention.
FIG. 3 presents the time dependence of the relative activity of two oxidation pathways of valproate, β-oxidation that leads to 3-heptanone, and […] that results in 2-propyl-4-pentanolactone. […]

[2] = human subject; cited from earlier work
[3] = Blood-based therapeutic drug monitoring of serum valproate (immunoassay total, GC-MS free); assay type: in vivo, human
From the text: FIG. 2 presents an analysis pipeline that includes constructing a response vector matrix, splitting the dataset into training and test set, applying feature reduction analysis to […] in order to identify predictors, training mathematical model based on selected predictors, applying selected predictors and mathematical model to the test set to determine the concentration of valproate in a subject, which matches well the serum concentration determined using the blood analysis, as determined in an immunoassay (total valproate concentration) and by GC-MS (free valproate concentration).
The range of pharmacotherapies is described in AED rows. The patients were receiving either a single drug or combinations of up to three drugs. The bottom three rows identify the clinical outcome as described by side effects (mild or severe), drug response (responder or non-responder), and EEG (normal or abnormal). The grey bars on the top show the concentrations (mg/L) of free and total serum VPA (level 0 was assigned to all the measurements of subjects' not taking VPA, missing bars in free VPA represents the unavailability of data). Dark (light) grey bars indicate that the measurements were outside (inside) the therapeutic range (i.e. 50-100 mg/L for total and 5-10 mg/L for free VPA). Thus, for example, patient 20 suffers from DEE. During the first visit (i.e. 20-1), the patient was receiving a combination of LTG, LEV, and VPA. Total serum VPA concentration was 104 mg/L (i.e. beyond the therapeutic range) and free serum VPA could not be measured. At this point in time, the patient had only mild side effects, but was not responding to the medication, and EEG was abnormal. On the second visit, the patient was unable to perform breath test. During the third visit (i.e. 20-3), LEV had been removed, total serum VPA concentration was 108 mg/L and free serum VPA concentration was 12.7 mg/L (both levels above the therapeutic range). Side effects were still mild, EEG was back to normal, but the patient was still not responding to the pharmacotherapy. AED=antiepileptic drugs, EEG=electroencephalography, VPA=valproic acid, LTG=lamotrigine, and LEV=levetiracetam.
59 subjects (32 males and 27 females) between the ages of 4 and 20 (see FIG. 12A for details), undergoing treatment with antiepileptic drugs (AEDs) with the necessity of therapeutic drug monitoring (TDM) were enrolled in the study Immediately after blood drawn for TDM, subjects performed prolonged exhalations directly into SESI-HRMS system, comprising SUPER-SESI ionization device (Fossil Ion Technology, Spain) coupled to a Q Exactive Plus HRMS (Thermo Fisher Scientific, Germany). During the course of study, wherever blood-based TDM were performed, subjects also provided exhalations, leading to multiple measurements from some subjects. In total 75 successful measurements (from 48 subjects) were performed. […] In order to determine the feasibility of TDM of an example drug valproate by using mass spectroscopy of samples of breath exhaled by subjects, the subjects were divided into two groups i.e. valproate users and non-valproate users. […] Moreover, a different relationship between total valproate serum concentration and valproate dose for subjects with mono and multi-therapy compared to that known in the literature (Duran, 1993) was observed (FIG. 12D).

[4] = patient 20, third visit (20-3), LEV removed

- span of observed 2-propyl-4-pentanolactone to 3-heptanone ratios [1]: more than 100 fold
- total valproate for a given dose, multi-therapy vs mono-therapy ([3]; FIG. 12D): lower than those of mono-therapy
- relationship between participants' age and serum free valproate fraction ([3]; ages 4 to 20, FIG. 12C): inversely proportional relationship
- total serum VPA concentration ([3]; patient 20, first visit (20-1), combination of LTG, LEV and VPA): 104 mg/L
- free serum VPA concentration [3, 4]: 12.7 mg/L
- total serum VPA concentration [3, 4]: 108 mg/L
- relationship between serum concentrations of free and total valproate ([3]; study participants, FIG. 12B): non-linear relationship
SMILES: CCCC(CCC)C(=O)O [VPA, Valproic acid]
- fraction directly excreted in urine without chemical modification [2]: Less than three percent
- fraction modified with coenzyme A and shuttled to mitochondria (β-oxidation, 3-oxovalproate) [2]: 12%
- fraction oxidised at position 4 (4-hydroxyvalproate) [2]: 2.7%
- fraction oxidised at position 5 (5-hydroxyvalproate) [2]: 2.3%
- fraction undergoing direct glucuronidation [2]: 80%
